Measurements reported in patent US20100304967A1, “METHOD OF PROTECTING RICE CROPS” (SYNGENTA CROP PROTECTION, INC., priority 2007, published 2010).

Columns and labels:
rice plants = assay: Example 1: damage to directly sown rice from safener-dressed seed after clodinafop application; type: in vivo, Oryza sativa; settings: for Damage to rice (%) after number of days 5: 5 days after application; for Damage to rice (%) after number of days 10: 10 days after application; for Damage to rice (%) after number of days 15: 15 days after application
Protocol: (§1) 500 g of rice seed material are soaked in water in a plastic dish for 24 hours. After the water has been poured off, the seed material is allowed to dry in air for 1 to 2 hours; 0.025 or 0.25 g of safener of formula (I) or (II) is then added and vigorous shaking is carried out. Sowing is performed 24 hours later.
(§2) 5 days after sowing, the herbicide clodinafop in the form of an EC 100 is applied at a rate of application of 60 g/ha. 5, 10 and 15 days afterwards, the damage to the rice plants that have emerged and to the weeds is determined.

[1] = system: wild rice (Oryza sativa), Echinochloa crus-galli and Leptochloa chinensis; assay: Example 1: damage to undesirable grasses after clodinafop application; type: in vivo; settings: clodinafop 60 g/ha
Protocol: as §1, §2

cultivated rice = assay: Example 2: damage to cultivated rice with or without safener seed dressing after clodinafop application; type: in vivo, Oryza sativa; settings: for Damage to rice (%) after number of days 5: 5 days; for Damage to rice (%) after number of days 10: 10 days; for Damage to rice (%) after number of days 15: 15 days
Protocol: as §1
as §2, with “60 or 120” for “60”, “determined. For comparison, untreated cultivated rice is tested under the same conditions as an indicator of the behaviour of wild rice.” for “determined.”

[2] = no safener, clodinafop EC 100 60 g/ha applied 5 days after sowing
[3] = cultivated rice without safener (indicator for wild rice), clodinafop 60 g/ha
[4] = cultivated rice without safener (indicator for wild rice), clodinafop 120 g/ha
[5] = safener 0.025 g per 500 g of seed material, clodinafop 60 g/ha
[6] = safener 0.25 g per 500 g of seed material, clodinafop 60 g/ha
[7] = rice seed dressed with safener 0.025 g per 500 g
[8] = rice seed dressed with safener 0.25 g per 500 g
[9] = cultivated rice with 0.025 g of safener (per 500 g seed), clodinafop 60 g/ha
[10] = cultivated rice with 0.025 g of safener (per 500 g seed), clodinafop 120 g/ha
[11] = cultivated rice with 0.25 g of safener (per 500 g seed), clodinafop 60 g/ha
[12] = cultivated rice with 0.25 g of safener (per 500 g seed), clodinafop 120 g/ha

C[C@@H](Oc1ccc(Oc2ncc(Cl)cc2F)cc1)C(=O)O [Clodinafop, clodinafop, reference compound]
Damage to rice (%) after number of days 5 (rice plants; [2]): 68% | Damage to rice (%) after number of days 10 (rice plants; [2]): 65% | Damage to rice (%) after number of days 15 (rice plants; [2]): 30% | Damage to undesirable grasses* (%) ([1]; no safener): 93% | Damage to rice (%) after number of days 5 (cultivated rice; [3]): 40% | Damage to rice (%) after number of days 10 (cultivated rice; [3]): 90% | Damage to rice (%) after number of days 15 (cultivated rice; [3]): 65% | Damage to rice (%) after number of days 5 (cultivated rice; [4]): 78% | Damage to rice (%) after number of days 10 (cultivated rice; [4]): 98% | Damage to rice (%) after number of days 15 (cultivated rice; [4]): 100%

COC(=O)c1sccc1NS(=O)(=O)c1nc2nc(C)cc(C)n2n1 [Formula II]
Damage to rice (%) after number of days 5 (rice plants; [5]): 21% | Damage to rice (%) after number of days 10 (rice plants; [5]): 9% | Damage to rice (%) after number of days 15 (rice plants; [5]): 0% | Damage to rice (%) after number of days 5 (rice plants; [6]): 5% | Damage to rice (%) after number of days 10 (rice plants; [6]): 3% | Damage to rice (%) after number of days 15 (rice plants; [6]): 0% | Damage to undesirable grasses* (%) [1, 7]: 98% | Damage to undesirable grasses* (%) [1, 8]: 99% | Damage to rice (%) after number of days 5 (cultivated rice; [9]): 18% | Damage to rice (%) after number of days 10 (cultivated rice; [9]): 8% | Damage to rice (%) after number of days 15 (cultivated rice; [9]): 0% | Damage to rice (%) after number of days 5 (cultivated rice; [10]): 23% | Damage to rice (%) after number of days 10 (cultivated rice; [10]): 15% | Damage to rice (%) after number of days 15 (cultivated rice; [10]): 8% | Damage to rice (%) after number of days 5 (cultivated rice; [11]): 13% | Damage to rice (%) after number of days 10 (cultivated rice; [11]): 9% | Damage to rice (%) after number of days 15 (cultivated rice; [11]): 0% | Damage to rice (%) after number of days 5 (cultivated rice; [12]): 25% | Damage to rice (%) after number of days 10 (cultivated rice; [12]): 16% | Damage to rice (%) after number of days 15 (cultivated rice; [12]): 5%

CNC(=O)Nc1ccc(S(=O)(=O)NC(=O)c2ccccc2OC)cc1 [Formula I]
Damage to rice (%) after number of days 5 (rice plants; [5]): 5% | Damage to rice (%) after number of days 10 (rice plants; [5]): 0% | Damage to rice (%) after number of days 15 (rice plants; [5]): 0% | Damage to rice (%) after number of days 5 (rice plants; [6]): 4% | Damage to rice (%) after number of days 10 (rice plants; [6]): 3% | Damage to rice (%) after number of days 15 (rice plants; [6]): 0% | Damage to undesirable grasses* (%) [1, 7]: 100% | Damage to undesirable grasses* (%) [1, 8]: 98%
